Reference: patent US6465433B1, “Boronic ester and acid compounds, synthesis and uses” (Millennium Pharmaceuticals, Inc., priority 1994, dated 2002)
Where a SMILES comes first, the peptide text is derived from it. The star is where a group is joined. Cbz = O=C(OCc1ccccc1)*

Key:
[1] = target: SDS-activated 20S proteasome from rabbit muscle (Oryctolagus cuniculus, UniProt G1SU71+G1T4Q9); experiment: Kinetic assay: inhibition of the 20S proteasome; format: biochemical
Experimental: (§1) P, AA^1, AA^2, AA^3, and Z^1 and Z^2 represent the structures present on formula (1) or (2). The protocol for the kinetic assay described in Tables II-V is as described in Rock et al., Cell 78:761-771 (1994). In these tables, Ki values are reported, which are dissociation constants for the equilibrium that is established when enzyme and inhibitor interact to form the enzyme:inhibitor complex. The reactions were performed using SDS-activated 20S proteasome from rabbit muscle. The substrate used was Suc-LLVY-AMC.

NF-κB = experiment: Activation of NF-κB, electrophoretic mobility shift assay in TNF-α stimulated MG63 osteosarcoma cells; format: cell-based; details: pretreatment for 1 hour, PRDII probe, FIG. 2
Experimental: Compounds can be tested for their ability to inhibit the activation of NF-κB by means of a DNA binding assay (Palombella, et al., Cell 78:773 (1994)). Whole-cell extracts are prepared from untreated or TNF-α treated cells that have been pretreated for 1 hour with the test compound. The DNA binding activity of NF-κB is measured by an electrophoretic mobility shift assay using the PRDII probe from the human IFN-β gene promoter.
This assay was performed as previously described (Palombella, et al. Cell, 78:773-785 (1994)). MG63 osteosarcoma cells were stimulated by treatment with TNF-α for the designated times. Whole cell extracts were prepared and analyzed by electrophoretic mobility shift assay using the PRDII probe from the human IFN-β gene promoter.

Cathepsin B = Cathepsin B (Homo sapiens, UniProt P07858); experiment: Kinetic assay: inhibition of Cathepsin B; format: biochemical; details: Table IV
Source text: [Worded in the source for another target; this target is reported under the same test.] as §1, with “Table II summarizes results from kinetic experiments that measured the inhibition of the 20S proteasome by compounds having the formula of compound (1) or (2). P,” for “P,”

C2C12 cells = experiment: Inhibition of protein degradation in C2C12 cells; format: cell-based, mouse; details: 35S-methionine labelled cells, percent decrease in TCA soluble radioactivity, media with 50% serum
Experimental: One approach to testing drug candidates for their ability to inhibit the ATP-ubiquitin-dependent degradative process is to measure proteolysis in cultured cells (Rock, et al., Cell 78:761 (1994)). For example, the degradation of long-lived intracellular proteins can be measured in mouse C2C12 myoblast cells. Cells are incubated with ^35S-methionine for 48 hours to label long-lived proteins and then chased for 2 hours with medium containing unlabeled methionine. After the chase period, the cells are incubated for 4 hours in the presence or absence of the test compound. The amount of protein degradation in the cell can be measured by quantitating the trichloroacetic acid soluble radioactivity released from the pre-labeled proteins into the growth medium (an indicator of intracellular proteolysis).
C2C12 cells (a mouse myoblast line) were labelled for 48 hrs with ^35S-methionine. The cells were then washed and preincubated for 2 hrs in the same media supplemented with 2 mM unlabelled methionine. The media was removed and replaced with a fresh aliquot of the preincubation media containing 50% serum, and a concentration of the compound to be tested. The media was then removed and made up to 10% TCA and centrifuged. The TCA soluble radioactivity was counted. Inhibition of proteolysis was calculated as the percent decrease in TCA soluble radioactivity.

Cathepsin G = target: T1, Cathepsin G (Homo sapiens, UniProt P08311); experiment: Kinetic assay: inhibition of Cathepsin G; format: biochemical; details: Table V
T1 sequence (P08311 21-244): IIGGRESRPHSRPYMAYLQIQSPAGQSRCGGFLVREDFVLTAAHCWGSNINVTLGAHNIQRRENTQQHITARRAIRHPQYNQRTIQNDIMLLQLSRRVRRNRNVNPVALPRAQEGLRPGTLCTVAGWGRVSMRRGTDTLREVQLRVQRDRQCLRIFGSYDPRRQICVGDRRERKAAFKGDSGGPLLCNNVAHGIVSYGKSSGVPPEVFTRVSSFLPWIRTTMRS

mice = experiment: DTH response (contact sensitivity, ear swelling) in mice; format: in vivo, mouse; details: oral, ear swelling approximately 18 hours after challenge
Source text: Compounds can also be tested for their ability to inhibit a delayed-type hypersensitivity response in mice. Contact hypersensitivity is a manifestation of an in vivo T-cell mediated immune response (Friedmann, Curr. Opinion Immunology, 1:690693 (1989)). Although the exact molecular mechanisms that regulate the cellular interactions and vascular changes involved in the response remain obscure, it is clear that the process is dependent upon the interplay of soluble mediators, adhesion molecules, and the cytokine network (Piguet, et al., J. Exp. Med. 173:673-679 (1991); Nickoloff, et al. J. Invest. Dermatol. 94:151S-157S (1990)). NF-κB, by mediating events such as the production of cytokines and the induction and utilization of cell-surface adhesion molecules, is a central and coordinating regulator involved in immune responses.
Naive nice were sensitized by the application of 20 μL of a 0.5% (v/v) solution of 2,4-dinitrofluorobenzene in 4:1 acetone/olive oil to both of the rear limb footpads. This procedure is performed on two consecutive days, which are referred to as days 0 and 1.
The efferent phase of the contact sensitivity response was elicited on day 5 by the application of 10 μL of a 0.2% (v/v) solution of 2,4-dinitrofluorobenzene in 4:1 acetone/olive oil to both sides of the left ear. The contralateral control ear was treated on both sides with 10 μL of vehicle only. The mice were lightly anaesthetized for this procedure by the intraperitoneal (i.p.) injection of a mixture of ketamine.(80 mg/kg, Henry Schein) and xylazine (16 mg/kg, Henry Schein). […]
Approximately 18 hours after the challenge, ear swelling was determined by measuring both the control and the experimental ear using a Mitutoyo Digital micrometer. The absolute difference in thickness of the experimental (left) ears vs. the control (right) ears was determined for each treatment group. Efficacy was determined by comparing this difference in thickness to the difference calculated for the vehicle control group.

Human Leukocyte Elastase = target: T2, Human Leukocyte Elastase (Homo sapiens, UniProt P08246); experiment: Kinetic assay: inhibition of Human Leukocyte Elastase; format: biochemical; details: Table V
T2 sequence (P08246 30-267): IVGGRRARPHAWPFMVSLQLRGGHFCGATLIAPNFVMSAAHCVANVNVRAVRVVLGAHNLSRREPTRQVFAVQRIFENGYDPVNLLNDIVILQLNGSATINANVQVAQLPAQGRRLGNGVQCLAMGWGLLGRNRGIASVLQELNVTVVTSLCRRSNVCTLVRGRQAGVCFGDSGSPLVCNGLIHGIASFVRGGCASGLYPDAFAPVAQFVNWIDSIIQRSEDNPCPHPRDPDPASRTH

[2] = Table II, SDS-activated 20S proteasome from rabbit muscle, substrate Suc-LLVY-AMC

Compound	Ki [1, 2] [nM]	IC50 (C2C12 cells; Mus musculus, C2C12) [nM]	IC50 (C2C12 cells) [nM]	further results
CSCCC(C=O)NC(=O)C(CC(C)C)NC(=O)C(CC(C)C)NC(C)=O [MG-102, Ac-L-Leu-L-Leu-L-Met-H, reference compound] (Ac-Leu-Leu-Met-aldehyde; configuration not given here)				activity against the 20S proteasome [1]: inactive; NF-κB binding activity (NF-κB): did not inhibit
CC(C)C[C@@H](C=O)NC(=O)[C@H](CC(C)C)NC(=O)[C@H](CC(C)C)NC(=O)OCc1ccccc1 [MG-132, Cbz-L-Leu-L-Leu-L-Leu-H] (Cbz-Leu-Leu-Leu-aldehyde)				NF-κB binding activity (NF-κB): inhibited
CC(=O)N[C@@H](CC(C)C)C(=O)N[C@@H](CC(C)C)C(=O)N[C@H](C=O)CC(C)C [MG-154, reference compound] (Ac-Leu-Leu-Leu-aldehyde)				Ki ([1]; Table IV): 66 nM; Ki (Cathepsin B): 5 nM
CC(C)CC(C=O)NC(=O)C(CC(C)C)NC(=O)C(Cc1c[nH]c2ccccc12)NC(=O)OCc1ccccc1 (stereo not drawn) [MG-191, reference compound] (Cbz-Trp-Leu-Leu-aldehyde; configuration not given here)				Ki ([1]; Table IV): 0.38 nM; Ki (Cathepsin B): 0.54 nM
CC(C)C[C@H](NC(=O)[C@H](Cc1cccc2ccccc12)NC(=O)N1CCOCC1)B(O)O [MG-273, N-(4-Morpholine)carbonyl-β-(1-naphthyl)-L-alanine-L-leucine Boronic Acid]	0.18	140		Ki ([1]; Table IV): 0.18 nM; Ki (Cathepsin B): 200000 nM
CC(C)C[C@H](NC(=O)[C@H](Cc1cccc2ccccc12)NS(=O)(=O)c1cccc2cccnc12)B(O)O [MG-296, N-(8-quinoline)sulfonyl-β-(1-naphthyl)-L-alanine-L-leucine boronic acid]	1.7	738		Ki (Cathepsin G): 9200 nM; Ki ([1]; Table IV): 1.7 nM; Ki ([1]; Table V): 1.7 nM; Ki (Cathepsin B): 4000 nM; % Inhibition of the DTH response (mice; dose 50 mg/kg): 60%; Ki (Human Leukocyte Elastase): 36 nM
CC(C)C[C@H](NC(=O)[C@H](Cc1ccccc1)NC(=O)N1CCOCC1)B(O)O [MG-309, N-(4-morpholine)carbonyl-L-phenylalanine-L-leucine boronic acid]	0.82	210		Ki (Cathepsin G): 4800 nM; Ki ([1]; Table IV): 0.82 nM; Ki ([1]; Table V): 0.82 nM; Ki (Cathepsin B): 132000 nM; % Inhibition of the DTH response (mice; dose 3 mg/kg): 40%; Ki (Human Leukocyte Elastase): 7000 nM
CC(C)C[C@H](NC(=O)[C@@H]1CCCN1)B(O)O [MG-319]	20	14000		
O=C(NC(Cc1ccccc1)B(O)O)C(Cc1cccc2ccccc12)NC(=O)N1CCOCC1 (centres unmarked) [MG-321]	0.32		2400	
CC(C)CC(NC(=O)C(CCc1ccccc1)NC(=O)N1CCOCC1)B(O)O (centres unmarked) [MG-322]	2.2		380	
CC(C)C[C@H](NC(=O)[C@H](CCc1ccccc1)NC(=O)c1ccc2ccccc2n1)B(O)O [MG-325, N-(2quinoline)carbonyl-L-homophenylalanine-L-leucine boronic acid]	2.8	1100		
N-Cbz-L-Leucine-L-leucine Boronic Acid [MG-274]	3		340	Ki ([1]; Table III, dipeptide boronic acid vs dipeptide aldehyde): 3 nM
β-(1-Naphthyl)-L-alanine-L-leucine Boronic Acid Hydrochloride Salt [MG-302]	7.5		270	
β-(1-Naphthyl)-L-alanine-L-leucine Boronic Acid [MG-303]	3.9		340	

More lines, main results first:

Ki [1, 2] [nM]	IC50 (C2C12 cells; Mus musculus, C2C12) [nM]	IC50 (C2C12 cells) [nM]	Compound	further results
0.088		69	CC(C)C[C@H](NC(=O)[C@H](Cc1cccc2ccccc12)NC(=O)c1ccccc1)B(O)O [MG-328]	
0.03		48	CC(C)C[C@H](NC(=O)[C@H](Cc1cccc2ccccc12)NC(=O)C1CCCCC1)B(O)O [MG-329]	
2.1	220		CN[C@@H](Cc1cccc2ccccc12)C(=O)N[C@@H](CC(C)C)B(O)O [MG-333]	
0.25	100		CC(C)C[C@H](NC(=O)[C@H](Cc1ccccc1)NC(=O)c1cccnc1)B(O)O [MG-336, N-(3-pyridine)carbonyl-L-phenylalanine-L-leucine boronic acid]	
	69		CC(C)C[C@H](NC(=O)[C@H](Cc1ccccc1)NC(=O)c1cnccn1)B(O)O [MG-341, N-(2-pyrazine)carbonyl-L-phenylalanine-L-leucine boronic acid]	Ki (Cathepsin B): 160000 nM; % Inhibition of the DTH response (mice; dose 3 mg/kg): 90%
0.42		57	CC(C)C[C@H](NC(=O)[C@H](Cc1ccccc1)NC(=O)c1ccccn1)B(O)O [MG-343]	
0.76		120	CC(C)C[C@H](NC(=O)[C@H](Cc1ccccn1)NC(=O)c1ccccc1)B(O)O [MG-345]	
1.1		150	CC(C)C[C@H](NC(=O)[C@H](Cc1ccccn1)NC(=O)C1CCCCC1)B(O)O [MG-346]	
29		13000	CC(C)C[C@H](NC(=O)[C@H](Cc1ccccn1)NS(=O)(=O)c1cccc2cccnc12)B(O)O [MG-347]	
0.14		160	CC(C)C[C@H](NC(=O)[C@H](Cc1ccccc1)NC(=O)NCc1ccccc1)B(O)O [MG-350]	
32		8100	CC(C)C[C@H](NC(=O)[C@@H](N)Cc1ccccn1)B(O)O [MG-351]	
